Source: PMC5951806, “Rapid labelling and covalent inhibition of intracellular native proteins using ligand-directed N-acyl-N-alkyl sulfonamide” (Nature Communications, 2018)

Key:
Test in all cases: TMT LC-MSMS of 11-labelled proteins
Assay type in all cases: cell-based
[1] = biological target: Dolichyl-diphosphooligosaccharide--protein glycosyltransferase 48 kDa subunit (DDOST) (Homo sapiens, UniProt P39656)
Text: (§1) Supplement 41467_2018_4343_MOESM4_ESM.xlsx, sheet "Exp2" | column: Abundance Ratio: (11) / (11 with PU-H71); Abundance Ratio: (11) / (DMSO); Abundances (Grouped): 11; Abundances (Grouped): 11 with PU-H71

[2] = biological target: Dolichyl-diphosphooligosaccharide--protein glycosyltransferase subunit 1 (RPN1) (Homo sapiens, UniProt P04843)
Text: as §1

[3] = biological target: Alpha-actinin-4 (ACTN4) (Homo sapiens, UniProt O43707)
Text: as §1

[4] = biological target: T1, Monocarboxylate transporter 4 (SLC16A3) (Homo sapiens, UniProt O15427)
T1 sequence (O15427 1-465): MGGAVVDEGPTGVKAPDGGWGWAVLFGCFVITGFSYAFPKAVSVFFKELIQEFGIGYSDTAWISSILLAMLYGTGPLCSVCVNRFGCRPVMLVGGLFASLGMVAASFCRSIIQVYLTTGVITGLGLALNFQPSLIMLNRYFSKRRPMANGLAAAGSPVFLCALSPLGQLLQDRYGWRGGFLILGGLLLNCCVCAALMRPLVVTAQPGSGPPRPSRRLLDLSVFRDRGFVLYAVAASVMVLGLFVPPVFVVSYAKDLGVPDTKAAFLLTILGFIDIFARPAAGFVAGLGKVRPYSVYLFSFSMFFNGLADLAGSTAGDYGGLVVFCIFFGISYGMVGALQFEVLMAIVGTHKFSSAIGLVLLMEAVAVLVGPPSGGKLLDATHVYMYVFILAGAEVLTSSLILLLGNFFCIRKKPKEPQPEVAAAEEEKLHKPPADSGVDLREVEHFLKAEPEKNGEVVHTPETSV
Text: as §1

[5] = biological target: Hemoglobin subunit alpha (HBA2; HBA1) (Homo sapiens, UniProt P69905)
Text: as §1

[6] = biological target: protein MAL2 (MAL2) (Homo sapiens, UniProt Q969L2)
Text: as §1

[7] = biological target: T2, Phosphate carrier protein, mitochondrial (SLC25A3) (Homo sapiens, UniProt Q00325)
T2 sequence (Q00325 50-362): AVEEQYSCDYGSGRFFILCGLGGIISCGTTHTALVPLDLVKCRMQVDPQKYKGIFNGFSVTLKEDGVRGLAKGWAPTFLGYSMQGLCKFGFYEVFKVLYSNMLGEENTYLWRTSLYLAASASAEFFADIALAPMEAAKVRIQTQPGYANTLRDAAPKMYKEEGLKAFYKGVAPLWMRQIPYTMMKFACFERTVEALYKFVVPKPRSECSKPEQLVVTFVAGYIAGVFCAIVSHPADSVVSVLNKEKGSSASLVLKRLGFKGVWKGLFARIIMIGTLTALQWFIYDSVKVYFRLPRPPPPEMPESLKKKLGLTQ
Text: as §1

[8] = biological target: Isoform 2 of Glucose-6-phosphate isomerase (GPI) (Homo sapiens, UniProt P06744)
Text: as §1

Hemoglobin subunit alpha (HBA2; HBA1), sequence (P69905 2-142 limits assumed): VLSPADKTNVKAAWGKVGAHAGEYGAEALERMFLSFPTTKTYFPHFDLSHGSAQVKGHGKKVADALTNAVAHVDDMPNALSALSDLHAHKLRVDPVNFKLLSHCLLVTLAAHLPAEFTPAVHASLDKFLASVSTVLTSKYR
Alpha-actinin-4 (ACTN4), sequence (O43707 whole entry): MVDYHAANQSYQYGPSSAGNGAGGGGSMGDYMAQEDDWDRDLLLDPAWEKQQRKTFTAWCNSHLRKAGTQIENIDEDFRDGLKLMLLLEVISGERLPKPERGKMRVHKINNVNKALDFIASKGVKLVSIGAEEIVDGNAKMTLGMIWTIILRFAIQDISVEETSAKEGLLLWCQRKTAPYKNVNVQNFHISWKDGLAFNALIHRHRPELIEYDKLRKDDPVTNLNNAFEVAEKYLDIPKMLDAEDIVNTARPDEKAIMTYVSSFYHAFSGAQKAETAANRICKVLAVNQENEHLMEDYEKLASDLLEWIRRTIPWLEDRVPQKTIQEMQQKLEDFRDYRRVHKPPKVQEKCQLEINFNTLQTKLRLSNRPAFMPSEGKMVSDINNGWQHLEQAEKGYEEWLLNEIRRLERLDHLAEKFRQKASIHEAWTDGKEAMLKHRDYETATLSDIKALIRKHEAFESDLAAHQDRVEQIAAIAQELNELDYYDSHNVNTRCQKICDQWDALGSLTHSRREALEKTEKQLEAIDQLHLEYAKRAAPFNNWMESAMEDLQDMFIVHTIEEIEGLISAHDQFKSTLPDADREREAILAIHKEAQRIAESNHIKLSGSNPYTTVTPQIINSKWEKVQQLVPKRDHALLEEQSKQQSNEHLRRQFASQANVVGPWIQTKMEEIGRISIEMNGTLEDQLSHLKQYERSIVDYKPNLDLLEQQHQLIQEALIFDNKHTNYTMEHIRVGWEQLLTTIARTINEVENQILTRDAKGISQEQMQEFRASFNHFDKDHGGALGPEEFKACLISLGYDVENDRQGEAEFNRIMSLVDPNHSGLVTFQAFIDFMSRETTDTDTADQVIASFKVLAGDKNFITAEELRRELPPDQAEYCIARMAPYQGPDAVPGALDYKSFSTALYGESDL
Dolichyl-diphosphooligosaccharide--protein glycosyltransferase 48 kDa subunit (DDOST), sequence (P39656 43-456): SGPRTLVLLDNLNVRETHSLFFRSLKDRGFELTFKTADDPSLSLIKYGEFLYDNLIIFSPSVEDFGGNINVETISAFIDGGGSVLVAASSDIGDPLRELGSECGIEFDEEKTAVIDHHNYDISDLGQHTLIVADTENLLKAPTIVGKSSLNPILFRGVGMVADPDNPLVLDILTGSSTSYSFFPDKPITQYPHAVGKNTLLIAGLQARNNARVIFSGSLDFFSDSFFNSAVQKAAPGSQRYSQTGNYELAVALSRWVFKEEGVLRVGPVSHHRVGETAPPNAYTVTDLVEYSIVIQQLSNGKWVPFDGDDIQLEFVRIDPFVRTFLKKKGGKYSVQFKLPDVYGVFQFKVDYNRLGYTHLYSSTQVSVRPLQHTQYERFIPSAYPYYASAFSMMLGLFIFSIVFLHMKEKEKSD
Dolichyl-diphosphooligosaccharide--protein glycosyltransferase 48 kDa subunit (DDOST), sequence (P04843 24-607 partner): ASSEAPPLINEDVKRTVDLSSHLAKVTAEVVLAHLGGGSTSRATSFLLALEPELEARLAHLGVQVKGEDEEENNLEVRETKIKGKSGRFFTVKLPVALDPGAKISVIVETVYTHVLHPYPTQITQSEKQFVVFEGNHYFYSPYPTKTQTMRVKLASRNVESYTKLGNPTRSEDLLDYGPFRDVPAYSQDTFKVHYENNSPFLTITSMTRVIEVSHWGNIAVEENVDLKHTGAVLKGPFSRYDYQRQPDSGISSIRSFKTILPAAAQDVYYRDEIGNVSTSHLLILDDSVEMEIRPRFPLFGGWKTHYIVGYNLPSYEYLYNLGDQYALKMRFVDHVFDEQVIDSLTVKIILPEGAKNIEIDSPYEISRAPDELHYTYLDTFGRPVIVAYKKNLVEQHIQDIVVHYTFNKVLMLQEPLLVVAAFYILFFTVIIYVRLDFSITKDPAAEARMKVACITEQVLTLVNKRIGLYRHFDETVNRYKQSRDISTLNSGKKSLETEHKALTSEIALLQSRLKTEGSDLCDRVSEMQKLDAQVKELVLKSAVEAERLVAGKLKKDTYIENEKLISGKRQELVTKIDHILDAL
Dolichyl-diphosphooligosaccharide--protein glycosyltransferase 48 kDa subunit (DDOST), sequence (P04844 23-631 partner): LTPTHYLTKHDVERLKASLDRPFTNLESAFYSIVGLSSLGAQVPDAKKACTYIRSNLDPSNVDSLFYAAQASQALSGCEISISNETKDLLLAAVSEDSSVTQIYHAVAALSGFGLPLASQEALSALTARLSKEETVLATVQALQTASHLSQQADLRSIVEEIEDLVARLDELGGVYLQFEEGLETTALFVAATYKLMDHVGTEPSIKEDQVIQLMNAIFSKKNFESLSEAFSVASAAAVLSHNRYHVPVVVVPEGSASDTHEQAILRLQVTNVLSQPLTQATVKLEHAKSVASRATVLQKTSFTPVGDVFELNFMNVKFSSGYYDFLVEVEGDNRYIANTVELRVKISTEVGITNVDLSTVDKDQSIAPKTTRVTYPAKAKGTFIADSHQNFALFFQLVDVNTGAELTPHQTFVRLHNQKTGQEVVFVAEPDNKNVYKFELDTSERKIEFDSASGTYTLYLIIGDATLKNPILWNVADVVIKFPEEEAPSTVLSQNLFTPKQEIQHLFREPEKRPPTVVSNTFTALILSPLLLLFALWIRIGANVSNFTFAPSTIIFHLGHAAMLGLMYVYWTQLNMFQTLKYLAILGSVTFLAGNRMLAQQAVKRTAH
Dolichyl-diphosphooligosaccharide--protein glycosyltransferase 48 kDa subunit (DDOST), sequence (P61803 whole entry partner): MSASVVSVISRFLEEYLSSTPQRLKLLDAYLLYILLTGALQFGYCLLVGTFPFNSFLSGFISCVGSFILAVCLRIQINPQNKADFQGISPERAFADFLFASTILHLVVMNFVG
Dolichyl-diphosphooligosaccharide--protein glycosyltransferase 48 kDa subunit (DDOST), sequence (P61165 whole entry partner): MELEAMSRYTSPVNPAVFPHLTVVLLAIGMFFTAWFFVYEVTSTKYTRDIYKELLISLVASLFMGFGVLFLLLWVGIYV
Dolichyl-diphosphooligosaccharide--protein glycosyltransferase 48 kDa subunit (DDOST), sequence (P0C6T2 whole entry partner): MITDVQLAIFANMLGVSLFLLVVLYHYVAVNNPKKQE
protein MAL2 (MAL2), sequence (Q969L2 whole entry): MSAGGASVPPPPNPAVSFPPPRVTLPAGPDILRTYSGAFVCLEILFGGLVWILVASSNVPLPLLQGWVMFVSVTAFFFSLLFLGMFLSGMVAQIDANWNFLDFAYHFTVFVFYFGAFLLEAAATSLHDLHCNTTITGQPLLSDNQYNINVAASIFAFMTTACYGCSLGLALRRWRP
Dolichyl-diphosphooligosaccharide--protein glycosyltransferase subunit 1 (RPN1), sequence (P04843 24-607): as the sequence (P04843 24-607 partner) above
Dolichyl-diphosphooligosaccharide--protein glycosyltransferase subunit 1 (RPN1), sequence (P39656 43-456 partner): as the sequence (P39656 43-456) above
Dolichyl-diphosphooligosaccharide--protein glycosyltransferase subunit 1 (RPN1), sequence (P04844 23-631 partner): as the sequence (P04844 23-631 partner) above
Dolichyl-diphosphooligosaccharide--protein glycosyltransferase subunit 1 (RPN1), sequence (P61803 whole entry partner): as the sequence (P61803 whole entry partner) above
Dolichyl-diphosphooligosaccharide--protein glycosyltransferase subunit 1 (RPN1), sequence (P61165 whole entry partner): as the sequence (P61165 whole entry partner) above
Dolichyl-diphosphooligosaccharide--protein glycosyltransferase subunit 1 (RPN1), sequence (P0C6T2 whole entry partner): as the sequence (P0C6T2 whole entry partner) above

CC(=O)Oc1ccc2c(c1)Oc1cc(OC(C)=O)ccc1C21OC(=O)c2cc(C(=O)NCCOCCOCCNC(=O)CCCC(=O)N(CC#N)S(=O)(=O)c3ccc(C(=O)NCCCn4c(Sc5cc6c(cc5I)OCO6)nc5c(N)ncnc54)cc3)ccc21 [compound 11]
Abundance Ratio: (11) / (11 with PU-H71) ([1]; sheet Exp2): 0.942 | Abundance Ratio: (11) / (DMSO) ([1]; sheet Exp2): 2.044 | Abundances (Grouped): 11 ([1]; sheet Exp2): 37.4 | Abundances (Grouped): 11 with PU-H71 ([1]; sheet Exp2, with PU-H71): 39.7 | Abundance Ratio: (11) / (11 with PU-H71) ([2]; sheet Exp2): 0.909 | Abundance Ratio: (11) / (DMSO) ([2]; sheet Exp2): 2.785 | Abundances (Grouped): 11 ([2]; sheet Exp2): 47.9 | Abundances (Grouped): 11 with PU-H71 ([2]; sheet Exp2, with PU-H71): 52.7 | Abundance Ratio: (11) / (11 with PU-H71) ([3]; sheet Exp2): 0.876 | Abundance Ratio: (11) / (DMSO) ([3]; sheet Exp2): 1.667 | Abundances (Grouped): 11 ([3]; sheet Exp2): 24 | Abundances (Grouped): 11 with PU-H71 ([3]; sheet Exp2, with PU-H71): 27.4 | Abundance Ratio: (11) / (11 with PU-H71) ([4]; sheet Exp2): 0.892 | Abundance Ratio: (11) / (DMSO) ([4]; sheet Exp2): 8.305 | Abundances (Grouped): 11 ([4]; sheet Exp2): 225.9 | Abundances (Grouped): 11 with PU-H71 ([4]; sheet Exp2, with PU-H71): 253.2 | Abundance Ratio: (11) / (11 with PU-H71) ([5]; sheet Exp2): 0.752 | Abundance Ratio: (11) / (DMSO) ([5]; sheet Exp2): 2.578 | Abundances (Grouped): 11 ([5]; sheet Exp2): 76.3 | Abundances (Grouped): 11 with PU-H71 ([5]; sheet Exp2, with PU-H71): 101.4 | Abundance Ratio: (11) / (11 with PU-H71) ([6]; sheet Exp2): 0.886 | Abundance Ratio: (11) / (DMSO) ([6]; sheet Exp2): 3.449 | Abundances (Grouped): 11 ([6]; sheet Exp2): 114.5 | Abundances (Grouped): 11 with PU-H71 ([6]; sheet Exp2, with PU-H71): 129.3 | Abundance Ratio: (11) / (11 with PU-H71) ([7]; sheet Exp2): 0.7 | Abundance Ratio: (11) / (DMSO) ([7]; sheet Exp2): 2.264 | Abundances (Grouped): 11 ([7]; sheet Exp2): 124.5 | Abundances (Grouped): 11 with PU-H71 ([7]; sheet Exp2, with PU-H71): 177.9 | Abundance Ratio: (11) / (11 with PU-H71) ([8]; sheet Exp2): 0.768 | Abundance Ratio: (11) / (DMSO) ([8]; sheet Exp2): 2.545 | Abundances (Grouped): 11 ([8]; sheet Exp2): 34.1 | Abundances (Grouped): 11 with PU-H71 ([8]; sheet Exp2, with PU-H71): 44.4
